{"source": "patent US20190152967A1", "about": "“PEROXISOME PROLIFERATOR-ACTIVATED RECEPTOR GAMMA SELECTIVE AGONISTS FOR INHIBITION OF RETINAL PIGMENT EPITHELIUM DEGENERATION OR GEOGRAPHIC ATROPHY” (The Schepens Eye Research Institute, Inc., priority 2016, published 2019)", "key": {"ARPE-19 cells": {"test_system": "ARPE-19 cells", "assay": "ox-LDL-induced RPE (ARPE-19) cell death", "format": "cell-based", "settings": "for protection of RPE from ox-LDL-induced cell death (FIG. 7): UVI3003 20 μM, troglitazone 1.3 μM alone or in combination with T0070907 and GW9662; for effect on the protection by PPARγ agonist troglitazone on RPE (FIG. 7): ARPE-19, ox-LDL, combined with troglitazone (1.3 μM)", "method": "In FIG. 1B, ARPE-19 cells were treated for 48 hr with LDL or ox-LDL at 25, 50, or 100 μg/ml. Conditioned media were harvested, and LDH levels were quantified to evaluate cell death.\nFIG. 5 is a bar graph showing testing different PPARγ agonists for RPE (ARPE-19) protection.\nFIG. 7 is a bar graph showing testing the effect of different PPAR(α, γ) and RXR antagonists in ox-LDL-induced RPE (ARPE-19) cell death."}, "[1]": {"test_system": "caspase-1 activation in ARPE-19 cells", "assay": "ox-LDL-induced caspase-1 activation (FLICA probe) in ARPE-19 cells", "format": "cell-based", "settings": "ARPE-19 serum-starved 24 hr, ox-LDL 100 μg/ml, troglitazone 1.3 μM, 48 hr", "from_the_text": "Cells were imaged by fluorescent microscope and the numbers of capase-1 positive cells for each treatment group were quantified by a masked investigator."}, "primary human RPE cells": {"test_system": "primary human RPE cells", "assay": "chloroquine-induced death of primary human RPE cells"}, "[2]": {"test_system": "PPARγ target genes (ANGPT, ACOX3) in ARPE19 cells", "assay": "PPARγ target genes expression in ARPE19 cells", "settings": "48-hour treatment, troglitazone vs. rosiglitazone"}, "human primary RPE cells": {"test_system": "human primary RPE cells", "assay": "ox-LDL-induced cell death of human primary RPE", "quoted_text": "For both, RPE cells were treated with 500 μg/mL of ox-LDL for 48 hr. Data=mean±SEM, **P<0.01 and ***P<0.001 compared to ox-LDL group (2-tailed unpaired t-test).\nData=mean±SEM, ***P<0.001 compared to ox-LDL group (2-tailed unpaired t-test)."}, "RXR": {"test_system": "RXR", "settings": "RXR antagonist; cited from earlier work"}, "PPARγ [3]": {"target": "T1, PPARγ (Homo sapiens, UniProt P37231)", "T1 sequence (P37231 1-505)": "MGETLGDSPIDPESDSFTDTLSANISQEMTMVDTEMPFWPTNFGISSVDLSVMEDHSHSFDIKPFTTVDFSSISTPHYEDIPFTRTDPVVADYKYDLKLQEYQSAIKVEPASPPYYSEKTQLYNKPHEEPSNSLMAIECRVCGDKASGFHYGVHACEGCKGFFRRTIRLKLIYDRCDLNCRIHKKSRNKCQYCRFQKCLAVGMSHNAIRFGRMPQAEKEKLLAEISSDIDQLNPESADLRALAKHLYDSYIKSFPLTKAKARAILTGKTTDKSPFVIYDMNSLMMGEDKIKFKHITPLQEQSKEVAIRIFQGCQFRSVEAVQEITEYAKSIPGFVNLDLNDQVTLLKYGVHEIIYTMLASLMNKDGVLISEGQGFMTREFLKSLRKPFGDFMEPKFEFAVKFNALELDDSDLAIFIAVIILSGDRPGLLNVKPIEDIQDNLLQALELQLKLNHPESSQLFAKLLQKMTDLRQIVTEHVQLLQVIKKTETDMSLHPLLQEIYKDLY", "settings": "PPARγ agonist; cited from earlier work"}, "PPARγ [4]": {"target": "T1, PPARγ", "settings": "PPARγ antagonist; cited from earlier work"}}, "data": [{"smiles": "Cc1c(C)c2c(c(C)c1O)CCC(C)(COc1ccc(CC3SC(=O)NC3=O)cc1)O2", "note": "(racemic) [troglitazone, (RS)-5-(4-[(6-hydroxy-2,5,7,8-tetramethylchroman-2-yl)methoxy]benzyl)thiazolidine-2,4-dione]", "values": [{"measurement": "protection of RPE from ox-LDL-induced cell death (FIG. 7)", "setting": "ARPE-19 cells; ARPE-19", "result": "significantly protected the RPE against ox-LDL-induced cell death"}, {"measurement": "protection of RPE from ox-LDL-induced cell death (FIG. 5)", "setting": "ARPE-19 cells; ARPE-19, troglitazone at 0.65 and 3.25 μM", "result": "significantly protected RPE cell from ox-LDL-induced cell death"}, {"measurement": "suppression of ox-LDL-induced caspase-1 activation (FIG. 3)", "setting": "[1]", "result": "significantly suppressed ox-LDL-induced caspase-1 activation"}, {"measurement": "suppression of RPE death induced by chloroquine (FIG. 4)", "setting": "primary human RPE cells", "result": "ineffective"}, {"measurement": "expression levels of PPARγ target genes ANGPT (angiopoietin-like-4) and ACOX3 (FIGS. 6A-B)", "setting": "[2]", "result": "differentially affected"}, {"measurement": "decrease of ox-LDL-induced cell death (FIG. 2B)", "setting": "human primary RPE cells; human primary RPE, 500 μg/mL ox-LDL for 48 hr, doses of 0.65 μM and 0.98 μM", "result": "significantly decreased cell death in a dose-dependent manner"}, {"measurement": "suppression of ox-LDL-induced death of primary human RPE cells (FIG. 4)", "setting": "human primary RPE cells; primary human RPE cells", "result": "significantly suppressed ox-LDL-induced death"}]}, {"smiles": "CCCCCOc1cc2c(cc1-c1cc(/C=C/C(=O)O)ccc1O)C(C)(C)CCC2(C)C", "note": "[UVI3003]", "values": [{"measurement": "protection of RPE from ox-LDL-induced cell death (FIG. 7)", "setting": "ARPE-19 cells; ARPE-19", "result": "significantly protected RPE from ox-LDL-induced death"}, {"measurement": "protection of RPE from ox-LDL-induced death", "setting": "ARPE-19 cells; ARPE-19, UVI3003 at high dose (20 μM)", "result": "about 100%"}, {"measurement": "IC50", "setting": "RXR", "result": "< 1000", "unit": "nM"}]}, {"smiles": "CCCCC/C=C/C=C1/C(=O)C=C[C@@H]1C/C=C\\CCCC(=O)O", "note": "[PGJ2, 15-deoxy-Δ^12,14-Prostaglandin J2]", "values": [{"measurement": "EC50", "setting": "PPARγ [3]", "result": "2000 to 7000", "unit": "nM"}]}, {"smiles": "CCC(=O)NC[C@H](Cc1ccc(OCCc2nc(-c3ccccc3)oc2C)cc1)N/C(C)=C\\C(=O)c1ccc(C(F)(F)F)cc1", "note": "[GW6471]", "values": [{"measurement": "protection of RPE from ox-LDL-induced cell death (FIG. 7)", "setting": "ARPE-19 cells; ARPE-19", "result": "no detectable effect in RPE protection"}]}, {"smiles": "O=C(Nc1ccncc1)c1cc([N+](=O)[O-])ccc1Cl", "note": "[T0070907]", "values": [{"measurement": "effect on the protection by PPARγ agonist troglitazone on RPE (FIG. 7)", "setting": "ARPE-19 cells", "result": "did not affect the protection effect"}, {"measurement": "protection of RPE from ox-LDL-induced cell death (FIG. 7)", "setting": "ARPE-19 cells; ARPE-19", "result": "did not have any detectable protection effect"}]}, {"smiles": "O=C1NC(=O)C(Cc2ccc3cc(OCc4ccccc4F)ccc3c2)S1", "note": "(stereo not drawn) [MCC-555]", "values": [{"measurement": "EC50 relative to rosiglitazone", "setting": "PPARγ [3]", "result": "lower than that of rosiglitazone"}]}, {"smiles": "O=C(Nc1ccccc1)c1cc([N+](=O)[O-])ccc1Cl", "note": "[GW9662]", "values": [{"measurement": "effect on the protection by PPARγ agonist troglitazone on RPE (FIG. 7)", "setting": "ARPE-19 cells", "result": "did not affect the protection effect"}, {"measurement": "protection of RPE from ox-LDL-induced cell death (FIG. 7)", "setting": "ARPE-19 cells; ARPE-19", "result": "did not have any detectable protection effect"}, {"measurement": "IC50", "setting": "PPARγ [4]", "result": "< 100", "unit": "nM"}]}]}
